Laboratory results from patent US20260069606A1, “Oxidative Stress and Diabetes Treatment with Cobinamide” (The Regents of the University of California, priority 2022, published 2026).

Columns and labels:
[1] = second order; literature values; cited from earlier work
[2] = second order; literature values; cited from earlier work; remark: listed apart in the source
[3] = literature values; not strictly comparable with third-order constants; cited from earlier work
[4] = literature values, cited from earlier work
D. melanogaster = test: Survival of fruit flies during paraquat poisoning; assay type: in vivo; settings: 20 mM paraquat with 0.8 mM drug in food, over 7 d
Procedure: The number of live flies was counted each day for 7 d. The experiment was repeated seven times, for a total of 70 flies per condition. The percent surviving flies was calculated; error bars represent standard deviations and are shown in one direction only for sake of clarity. […] Chi, cobinamide in Panel A and histidyl-cobinamide in Panels B-K; Imp, imisopasem; MnTP, MnTBAP; CbL, cobalamin; DNPH, 2,4-dinitrophenylhydrazine; ND, non-diabetic; D, diabetic; Veh, vehicle.
To test cobinamide in a whole animal, D. melanogaster was selected for initial studies, and oxidative stressed was increased in the files by administering paraquat in their food. Cobinamide was again compared to imisopasem, MnTBAP, and hydroxocobalamin, all administered in food.

H9c2 cells = test: Mitochondrial membrane potential, JC-1 red to green fluorescence; assay type: cell-based, rat; settings: H9c2, 5 μM rotenone 30 min, drugs at 2.5 μM
Procedure: (§1) FIGS. 3A-3H. […] FIGS. 3A-3B. […] FIG. 3A. […] FIG. 3B. […] FIGS. 3C-3D. […] FIG. 3D. […] FIGS. 3E-3F. […] FIG. 3E. Representative blots are shown. […] FIG. 3F. […] FIG. 3G. […] FIG. 3H.
(§2) The cells were then washed once with PBS, placed back in the DMEM experimental medium, and incubated with the indicated drugs for 30 min. At the end of the incubation period, nuclei of both the MitoSOX Red- and JC-1-treated cells were stained with […] 4′,6-diamidino-2-phenyl-indole (DAPI) for 3 min, washed once with PBS, and returned to the DMEM experimental medium. The cover slips were removed from the wells, mounted in the DMEM experimental medium, and red (MitoSOX Red and JC-1 aggregates), green (JC-1 monomers), and blue (DAPI) fluorescence intensity was assessed using a Keyence BZ-X700 fluorescence microscope at the following paired excitation/emission wavelengths, respectively: 560/630, 490/525, and 360/460 nm.
Increased mitochondrial O2·^− by rotenone would be expected to reduce the mitochondrial membrane potential (ΔΨm), due in part to activation of uncoupling proteins^39. […] Rotenone caused an almost complete loss of red fluorescence and a striking increase in green fluorescence in the cells, indicating a marked decrease in ΔΨm (FIGS. 3C-3D).

[5] = test system: H9c2 rat embryonal cardiomyocytes; test: Mitochondrial superoxide content, MitoSOX Red fluorescence; assay type: cell-based; settings: H9c2, 5 μM rotenone 30 min, drugs at 2.5 μM
Procedure: as §1
H9c2 cells were plated on glass cover slips in 24 well dishes, and 16 h later the medium was changed to phenol red-free DMEM supplemented with 20 mM Hepes, 0.1% fetal bovine serum, and 0.5% bovine serum albumin. […] MitoSOX Red is a dihydroethidium derivative containing triphenyl-phosphonium, which localizes it to respiring mitochondria. Its reaction with O2·^− yields 2-hydroxy-mitoethidium (2-OH-Mito-E″), whereas its reaction with other oxidative species yields mitoethidium (Mito-E^+)^67. These two oxidative derivatives have overlapping fluorescence spectra, but they can be distinguished by high performance liquid chromatography (HPLC)^68. Rotenone increased 2-OH-Mito-E^+ about two-fold, without increasing Mito-E^+. Thus, any increased fluorescence observed on treating cells with rotenone could be ascribed to an increase in 2-OH-Mito-E^+, and decreased fluorescence by an anti-oxidant in rotenone-treated cells was likely from a decrease in 2-OH-Mito-E^+.
as §2
To assess if cobinamide reduces oxidative stress in cells and to compare its […] efficacy to that of cobalamin, imisopasem, and MnTBAP, several sets of experiments were performed. First, whether cobinamide reduces mitochondrial-generated O2·^− was evaluated using the fluorescent probe MitoSOX Red. H9c2 rat embryonal cardiomyocytes were treated with rotenone, an inhibitor of complex I, to increase mitochondrial O2·^−. […] Monitoring the UV-visible spectrum of cobinamide is a sensitive means to assess ligand binding^38.

COS-7 cells = settings: COS-7, 1 mM paraquat 3 h, 100 μM drug, counted 48 h later
Procedure: as §1
Finally, whether cobinamide could alleviate the effects of oxidative stress induced by yet another mechanism in a different cell type was tested using paraquat-treated COS-7 cells. Paraquat generates O2·^− through a redox cycling mechanism and increases both intracellular O2·^− and H2O2^42.

[6] = test system: Jun N-terminal kinase (JNK) phosphorylation in H9c2 cells; test: H2O2-induced JNK phosphorylation, immunoblotting; assay type: cell-based, rat; settings: H9c2, 100 μM H2O2 30 min, drugs at 100 μM
Excerpt: as §1

[7] = mouse, in vivo
Procedure: It seemed possible, therefore, that the cobinamide administered to the mice could have increased their blood pressure, since ·NO is a potent vasodilator. Because diabetes can increase blood pressure, these studies were performed on a parallel set of non-diabetic mice of the same strain and sex and using the same concentration of histidyl-cobinamide in the drinking water as in the above-described studies.

Oxidation in the presence of oxygen	Compound	Rate constant, reaction with peroxynitrite (ONOO^−), published [1]	Rate constant, reaction with superoxide (O2·^−), published [2] [M⁻¹ s⁻¹]	Rate constant, reaction with hydrogen peroxide (H2O2), published [3]	Ka, binding of nitric oxide (·NO), published [4]	Effect on mortality of paraquat-exposed flies (D. melanogaster)	JC-1 red to green fluorescence ratio (ΔΨm) in rotenone-treated cells (H9c2 cells)	MitoSOX red fluorescence in rotenone-treated cells [5]	Effect on cell growth of paraquat-treated cells (COS-7 cells)	JNK phosphorylation in H2O2-treated cells [6]	Rate constant, reaction with nitric oxide (·NO), published ([4]; second order)	Blood pressure [7]
rapidly oxidized back to cobalamin(III)	C/C1=C2/[N-][C@H]([C@H](CC(N)=O)[C@@]2(C)CCC(=O)NC[C@H](C)OP(=O)([O-])O[C@H]2[C@@H](O)[C@@H](n3cnc4cc(C)c(C)cc43)O[C@@H]2CO)[C@]2(C)N=C(/C(C)=C3N=C(/C=C4N=C1[C@@H](CCC(N)=O)C\4(C)C)[C@@H](CCC(N)=O)[C@]\3(C)CC(N)=O)[C@@H](CCC(N)=O)[C@]2(C)CC(N)=O.[Co+2] (stereo in doubt) [Cobalamin(II)]	3.7 × 10^5 (14) M^−1 s^−1	3.8e+08	1.4 × 10^2	Ka: 1.5 × 10^8 (51) M^−1	–	–	–	–	–	–	–
–	O=C(O)c1ccc(-c2c3nc(c(-c4ccc(C(=O)O)cc4)c4ccc([n-]4)c(-c4ccc(C(=O)O)cc4)c4nc(c(-c5ccc(C(=O)O)cc5)c5ccc2[n-]5)C=C4)C=C3)cc1.[Mn+3] [MnTBAP, manganese(III)tetrakis(4-benzoicacid)porphyrin]	~1 × 10^5 (27) M^−1 s^−1	~4.0	5.8	–	lesser effect	modest degrees of recovery	reduced the fluorescent signal substantially	neither imisopasem nor MnTBAP had an effect	small non-significant effects	No activity (28)	–
–	histidyl-cobinamide	–	–	–	–	–	–	–	–	–	–	No difference in the blood pressure
